Target: T1, CCR2 (Homo sapiens, UniProt P41597)
T1 construct: host or cells: THP-1 human monocytic cells
T1 sequence (P41597 1-360 isoform P41597-2): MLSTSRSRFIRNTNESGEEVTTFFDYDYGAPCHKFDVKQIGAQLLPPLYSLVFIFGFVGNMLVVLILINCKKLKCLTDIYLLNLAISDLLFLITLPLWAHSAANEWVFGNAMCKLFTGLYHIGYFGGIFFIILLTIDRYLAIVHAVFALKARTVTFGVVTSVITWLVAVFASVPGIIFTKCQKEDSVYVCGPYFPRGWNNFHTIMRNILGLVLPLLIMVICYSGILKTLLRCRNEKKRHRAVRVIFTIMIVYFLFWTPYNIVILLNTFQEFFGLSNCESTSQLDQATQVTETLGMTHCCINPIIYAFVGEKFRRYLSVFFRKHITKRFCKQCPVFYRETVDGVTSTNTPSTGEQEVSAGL
Experiment: MCP-1 Receptor Binding Assay in THP-1 Cells
Conditions: 0.5 nM 125I labeled MCP-1, 2 hours at 30° C., less polar isomer tested where stated, read-out: Inhibition of MCP-1 Binding IC50, CCR2 Binding
Method: MCP-1 Receptor Binding Assay in THP-1 Cells
Human monocytic cell line THP-1 cells were obtained from American Type Culture Collection (Manassas, Va., USA). The THP-1 cells were grown in RPMI-1640 (RPMI: Roswell Park Memorial Institute Medium-cell culture growth media) supplemented with 10% fetal bovine serum in a humidified 5% CO2 atmosphere at 37° C. The cell density was maintained […].
THP-1 (cells were incubated with 0.5 nM ^125I labeled MCP-1 (Perkin-Elmer Life Sciences, Inc. Boston, Mass.) in the presence of varying concentrations of either unlabeled MCP-1 (R & D Systems, Minneapolis, Minn.) or test compound for 2 hours at 30° C. in a 96 well plate. Cells were then harvested onto a filter plate, dried, and 20 μL of Microscint 20 was added to each well. Plates were counted in a TopCount NXT, Microplate Scintillation & Luminescence Counter (Perkin-Elmer Life Sciences, Inc. Boston, Mass.). Blank values (buffer only) were subtracted from all values and drug treated values were compared to vehicle treated values. 1 μM cold MCP-1 was used for nonspecific binding.
Where an IC50 value was not obtained for a particular compound, the percent inhibition is provided at a test concentration of 25 μM.

SMILES | IC50 [nM]
CC(C)c1ncc(C2(O)CCC(N3CC(NC(=O)CNc4nn(C)c5ccc(C(F)(F)F)cc45)C3)CC2)s1 (centres unmarked) [Example 24, N-{1-[4-Hydroxy-4-(2-isopropyl-thiazol-5-yl)-cyclohexyl]-azetidin-3-yl}-2-(1-methyl-5-trifluoromethyl-1H-indazol-3-ylamino)-acetamide] | 5.3
O=C(CNc1n[nH]c2ccc(C(F)(F)F)nc12)NC1CN([C@H]2CC[C@@](O)(c3cncs3)CC2)C1 [Example 104, N-(1-((1R,4R)-4-hydroxy-4-(thiazol-5-yl)cyclohexyl)azetidin-3-yl)-2-((5-(trifluoromethyl)-1H-pyrazolo[4,3-b]pyridin-3-yl)amino)acetamide] | 230
O=C(CNc1noc2ccc(C(F)(F)F)cc12)NC1CN(C2CCC(c3ccc4c(c3)OCO4)CC2)C1 (centres unmarked) [Example 1, N-[1-(4-Benzo[1,3]dioxol-5-yl-cyclohexyl)-azetidin-3-yl]-2-(5-trifluoromethyl-benzo[d]isoxazol-3-ylamino)-acetamide] | 36
Cn1nc(NCC(=O)NC2CN(C3CCC(O)(c4ccccc4)CC3)C2)c2cc(C(F)(F)F)ccc21 (centres unmarked) [Example 29, N-[1-(4-Hydroxy-4-phenyl-cyclohexyl)-azetidin-3-yl]-2-(1-methyl-5-trifluoromethyl-1H-indazol-3-ylamino)-acetamide] | 19
CCn1nc(NCC(=O)NC2CN(C3CCC(O)(c4cncs4)CC3)C2)c2cc(C(F)(F)F)ccc21 (centres unmarked) [Example 67, 2-(1-Ethyl-5-trifluoromethyl-1H-indazol-3-ylamino)-N-[1-(4-hydroxy-4-thiazol-5-yl-cyclohexyl)-azetidin-3-yl]-acetamide] | 8.4
CC(C)(C)[Si](C)(C)OC1CCC(N2CC(NC(=O)CNc3noc4ccc(C(F)(F)F)cc34)C2)CC1 (centres unmarked) [Example 8, N-{1-[4-(tert-Butyl-dimethyl-silanyloxy)-cyclohexyl]-azetidin-3-yl}-2-(5-trifluoromethyl-benzo[d]isoxazol-3-ylamino)-acetamide] | 7700
CCc1ncc(C2(O)CCC(N3CC(NC(=O)CNc4nn(C)c5ccc(C(O)C(F)(F)F)cc45)C3)CC2)s1 (centres unmarked) [Example 62, N-{1-[4-(2-Ethyl-thiazol-5-yl)-4-hydroxy-cyclohexyl]-azetidin-3-yl}-2-[1-methyl-5-(2,2,2-trifluoro-1-hydroxy-ethyl)-1H-indazol-3-ylamino]-acetamide] | 1500
O=C(CNc1n[nH]c2ccc(C(F)(F)F)cc12)NC1CN(C2CCC(O)(c3cncs3)CC2)C1 (centres unmarked) [Example 42, N-[1-(4-Hydroxy-4-thiazol-5-yl-cyclohexyl)-azetidin-3-yl]-2-(5-trifluoromethyl-1H-indazol-3-ylamino)-acetamide] | 16
Cc1ccc(C2(O)CCC(N3CC(NC(=O)CNc4nn(CCO)c5ccc(C(F)(F)F)cc45)C3)CC2)cn1 (centres unmarked) [Example 74, 2-[1-(2-Hydroxy-ethyl)-5-trifluoromethyl-1H-indazol-3-ylamino]-N-{1-[4-hydroxy-4-(6-methyl-pyridin-3-yl)-cyclohexyl]-azetidin-3-yl}-acetamide] | 55
CCOC(=O)C1CCC(N2CC(NC(=O)CNc3nn(C)c4ccc(C(F)(F)F)cc34)C2)CC1 (centres unmarked) [Example 32, 4-{3-[2-(1-Methyl-5-trifluoromethyl-1H-indazol-3-ylamino)-acetylamino]-azetidin-1-yl}-cyclohexane carboxylic acid ethyl ester] | 13
CCOC(=O)C1CCC(N2CC(NC(=O)CNc3noc4ccc(OC(F)(F)F)cc34)C2)CC1 (centres unmarked) [Example 16, 4-{3-[2-(5-Trifluoromethoxy-benzo[d]isoxazol-3-ylamino)-acetylamino]-azetidin-1-yl}-cyclohexanecarboxylic acid ethyl ester] | 71
N#CC1CCC(N2CC(NC(=O)CNc3noc4ccc(C(F)(F)F)cc34)C2)CC1 (centres unmarked) [Example 13, N-[1-(4-Cyano-cyclohexyl)-azetidin-3-yl]-2-(5-trifluoromethyl-benzo[d]isoxazol-3-ylamino)-acetamide] | 450
CC(C)NC(=O)n1nc(NCC(=O)NC2CN(C3CCC(C(C)C)CC3)C2)c2cc(C(F)(F)F)ccc21 (centres unmarked) [Example 92, 3-({[1-(4-Isopropyl-cyclohexyl)-azetidin-3-ylcarbamoyl]-methyl}-amino)-5-trifluoromethyl-indazole-1-carboxylic acid isopropylamide] | 1600
Cc1ccc(C2(O)CCC(N3CC(NC(=O)CNc4nn(C)c5ccc(C(F)(F)F)cc45)C3)CC2)cn1 (centres unmarked) [Example 30, N-{1-[4-Hydroxy-4-(6-methyl-pyridin-3-yl)-cyclohexyl]-azetidin-3-yl}-2-(1-methyl-5-trifluoromethyl-1H-indazol-3-ylamino)-acetamide] | 7.5
COc1ccc(C2CCC(N3CC(NC(=O)CNc4nn(C(=O)NC(C)C)c5ccc(C(F)(F)F)cc45)C3)CC2)cn1 (centres unmarked) [Example 91, 3-[({1-[4-(6-Methoxy-pyridin-3-yl)-cyclohexyl]-azetidin-3-ylcarbamoyl}-methyl)-amino]-5-trifluoromethyl-indazole-1-carboxylic acid isopropylamide] | 14
COc1ccc(C2(O)CCC(N3CC(NC(=O)CNc4nn(CCO)c5ccc(C(F)(F)F)cc45)C3)CC2)cn1 (centres unmarked) [Example 75, 2-[1-(2-Hydroxy-ethyl)-5-trifluoromethyl-1H-indazol-3-ylamino]-N-{1-[4-hydroxy-4-(6-methoxy-pyridin-3-yl)-cyclohexyl]-azetidin-3-yl}-acetamide] | 32
COc1ccc(C2(O)CCC(N3CC(NC(=O)CNc4noc5ccc(C(F)(F)F)cc45)C3)CC2)cn1 (centres unmarked) [Example 2, N-{1-[4-Hydroxy-4-(6-methoxy-pyridin-3-yl)-cyclohexyl]-azetidin-3-yl}-2-(5-trifluoromethyl-benzo[d]isoxazol-3-ylamino)-acetamide] | 23
CCOc1ccc(C2(O)CCC(N3CC(NC(=O)CNc4nn(C(N)=O)c5ccc(C(F)(F)F)cc45)C3)CC2)cn1 (centres unmarked) [Example 83, 3-[({1-[4-(6-Ethoxy-pyridin-3-yl)-4-hydroxy-cyclohexyl]-azetidin-3-ylcarbamoyl}-methyl)-amino]-5-trifluoromethyl-indazole-1-carboxylic acid amide] | 22
CC(C)(C)NC(=O)n1nc(NCC(=O)NC2CN(C3CCC(C#N)CC3)C2)c2cc(C(F)(F)F)ccc21 (centres unmarked) [Example 86, 3-({[1-(4-Cyano-cyclohexyl)-azetidin-3-ylcarbamoyl]-methyl}-amino)-5-trifluoromethyl-indazole-1-carboxylic acid tert-butylamide] | 750
COc1ccc(C2(O)CCC(N3CC(NC(=O)CNc4nn(C)c5ccc(C(F)(OC)C(F)(F)F)cc45)C3)CC2)cn1 (centres unmarked) [Example 102, N-{1-[4-Hydroxy-4-(6-methoxy-pyridin-3-yl)-cyclohexyl]-azetidin-3-yl}-2-[1-methyl-5-(1,2,2,2-tetrafluoro-1-methoxy-ethyl)-1H-indazol-3-ylamino]-acetamide] | 33
Cc1ccc(C2(O)CCC(N3CC(NC(=O)CNc4n[nH]c5ccc(C(F)(F)F)cc45)C3)CC2)cn1 (centres unmarked) [Example 43, N-{1-[4-Hydroxy-4-(6-methyl-pyridin-3-yl)-cyclohexyl]-azetidin-3-yl}-2-(5-trifluoromethyl-1H-indazol-3-ylamino)-acetamide] | 5.8
O=C(CNc1n[nH]c2ccc(C(F)(F)F)cc12)NC1CN(C2CCC(n3ccccc3=O)CC2)C1 (centres unmarked) [Example 53, N-{1-[4-(2-Oxo-2H-pyridin-1-yl)-cyclohexyl]-azetidin-3-yl}-2-(5-trifluoromethyl-1H-indazol-3-ylamino)-acetamide] | 63
CCn1nc(NCC(=O)NC2CN(C3CCC(O)(c4nccs4)CC3)C2)c2cc(C(F)(F)F)ccc21 (centres unmarked) [Example 68, 2-(1-Ethyl-5-trifluoromethyl-1H-indazol-3-ylamino)-N-[1-(4-hydroxy-4-thiazol-2-yl-cyclohexyl)-azetidin-3-yl]-acetamide] | 51
COc1ccc(C2(O)CCC(N3CC(NC(=O)CNc4nn(C)c5ccc(C(F)(F)F)cc45)C3)CC2)cn1 (centres unmarked) [Example 18, N-{1-[4-Hydroxy-4-(6-methoxy-pyridin-3-yl)-cyclohexyl]-azetidin-3-yl}-2-(1-methyl-5-trifluoromethyl-1H-indazol-3-ylamino)-acetamide] | 9.4
COc1ccc(C2(O)CCC(N3CC(NC(=O)CNc4nn(C)c5ccc(OC(F)(F)F)cc45)C3)CC2)cn1 (centres unmarked) [Example 57] | 60
N#CC1CCC(N2CC(NC(=O)CNc3nn(C(N)=O)c4ccc(C(F)(F)F)cc34)C2)CC1 (centres unmarked) [Example 87, 3-({[1-(4-Cyano-cyclohexyl)-azetidin-3-ylcarbamoyl]-methyl}-amino)-5-trifluoromethyl-indazole-1-carboxylic acid amide] | 520

Source: US8436023B2, “Cyclohexyl-azetidinyl antagonists of CCR2” (Janssen Pharmaceutica N.V., priority 2010, dated 2013)
